In experiment [1] the target is hMC3-R (Homo sapiens, UniProt P41968). Put plainly: Competitive inhibition binding assay, 125I-NDP-α-MSH, hMC3-R membranes. The following applies: 1 μM test compound; 0.4 nM 125I-NDP-α-MSH; mean of triplicate; results less than 0% reported as 0%; read-out: Inhibition at 1 μM MC3-R. How it is done:
(§1) Competitive inhibition assay. A competitive inhibition binding assay was conducted using membranes prepared from hMC1-R or B-16 mouse melanoma cells (containing MC1-R), hMC3-R, hMC4-R, and hMC5-R, and using 0.4 nM ^125I-NDP-α-MSH (New England Nuclear, Boston, Mass., USA) in 50 mM HEPES buffer containing 1 mM MgCl2, 2 mM CaCl2, and 5 mM KCl, at pH 7.2. The assay tube also contained a chosen concentration of the test compound of this invention, typically a 1 μM concentration, for determining its efficacy in inhibiting the binding of ^125I-NDP-α-MSH to its receptor. Non-specific binding was measured by complete inhibition of binding of ^125I-NDP-α-MSH in the assay with the presence of 1 μM α-MSH.
(§2) Incubation was for 90 minutes at room temperature, after which the assay mixture was filtered and the membranes washed three times with ice cold buffer. The filter was dried and counted in a gamma counter for remaining radioactivity bound to the membranes. 100% specific binding was defined as the difference in radioactivity (cpm) bound to cell membranes in the absence and presence of 1 μM α-MSH. The cpm obtained in the presence of test compounds are normalized with respect to 100% specific binding to determine the percent inhibition of ^125I-NDP-a-MSH binding. Each assay was conducted in triplicate and the actual mean values are described, with results less than 0% reported as 0%.

In experiment [2] the target is T1, B-16 mouse melanoma cells (containing MC1-R) (Mus musculus, UniProt Q01727).
T1 construct: B-16 mouse melanoma cells (containing MC1-R); endogenous in cells; host or cells: B-16 mouse melanoma cells
Put plainly: Competitive inhibition binding assay, 125I-NDP-α-MSH, B-16 mouse melanoma cell membranes. The following applies: 1 μM test compound; 0.4 nM 125I-NDP-α-MSH; mean of triplicate; results less than 0% reported as 0%; read-out: Inhibition at 1 μM MC1-R (murine). How it is done: as §1, §2

Experiment [3] concerns the target hMC4-R (Homo sapiens, UniProt P32245). Put plainly: Competitive inhibition binding assay, 125I-NDP-α-MSH, hMC4-R membranes. The following applies: 1 μM test compound; 0.4 nM 125I-NDP-α-MSH; mean of triplicate; results less than 0% reported as 0%; read-out: Inhibition at 1 μM MC4-R. The protocol: as §1, §2
For experiment [4], the target named is hMC5-R (Homo sapiens, UniProt P33032). Nature of the experiment: Competitive inhibition binding assay, 125I-NDP-α-MSH, hMC5-R membranes. The following applies: 1 μM test compound; 0.4 nM 125I-NDP-α-MSH; mean of triplicate; results less than 0% reported as 0%; read-out: Inhibition at 1 μM MC5-R. The protocol:
as §1, §2

The text below walks through data of patent US7709484B1, “Substituted melanocortin receptor-specific piperazine compounds” (Palatin Technologies, Inc., priority 2004, dated 2010).

T1 sequence (Q01727 whole entry): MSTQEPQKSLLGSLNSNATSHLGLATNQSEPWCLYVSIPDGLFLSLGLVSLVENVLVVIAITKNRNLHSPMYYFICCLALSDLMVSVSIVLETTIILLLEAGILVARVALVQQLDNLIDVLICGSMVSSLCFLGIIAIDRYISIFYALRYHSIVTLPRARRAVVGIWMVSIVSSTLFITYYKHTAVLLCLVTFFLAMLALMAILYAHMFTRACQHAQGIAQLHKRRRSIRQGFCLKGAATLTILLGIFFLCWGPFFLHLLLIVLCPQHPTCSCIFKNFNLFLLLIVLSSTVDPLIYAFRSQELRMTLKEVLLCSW
hMC4-R, sequence (P32245 whole entry): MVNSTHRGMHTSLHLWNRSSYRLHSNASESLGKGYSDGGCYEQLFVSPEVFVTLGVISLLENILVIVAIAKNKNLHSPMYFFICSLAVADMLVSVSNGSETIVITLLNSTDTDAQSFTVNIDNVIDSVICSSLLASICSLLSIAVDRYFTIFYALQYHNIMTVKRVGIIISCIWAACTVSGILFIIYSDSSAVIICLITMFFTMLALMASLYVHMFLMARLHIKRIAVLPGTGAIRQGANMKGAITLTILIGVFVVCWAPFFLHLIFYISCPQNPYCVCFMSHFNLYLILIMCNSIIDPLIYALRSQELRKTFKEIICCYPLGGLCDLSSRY
hMC5-R, sequence (P33032 whole entry): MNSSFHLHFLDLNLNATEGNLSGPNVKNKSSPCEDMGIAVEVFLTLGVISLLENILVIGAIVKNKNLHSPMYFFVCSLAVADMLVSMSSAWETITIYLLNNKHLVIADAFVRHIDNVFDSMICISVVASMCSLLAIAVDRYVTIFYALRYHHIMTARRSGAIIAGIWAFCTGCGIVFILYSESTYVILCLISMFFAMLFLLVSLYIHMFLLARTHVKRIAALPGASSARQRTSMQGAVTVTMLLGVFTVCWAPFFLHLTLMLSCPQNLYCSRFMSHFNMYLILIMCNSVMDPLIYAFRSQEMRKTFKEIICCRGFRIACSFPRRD
hMC3-R, sequence (P41968 whole entry): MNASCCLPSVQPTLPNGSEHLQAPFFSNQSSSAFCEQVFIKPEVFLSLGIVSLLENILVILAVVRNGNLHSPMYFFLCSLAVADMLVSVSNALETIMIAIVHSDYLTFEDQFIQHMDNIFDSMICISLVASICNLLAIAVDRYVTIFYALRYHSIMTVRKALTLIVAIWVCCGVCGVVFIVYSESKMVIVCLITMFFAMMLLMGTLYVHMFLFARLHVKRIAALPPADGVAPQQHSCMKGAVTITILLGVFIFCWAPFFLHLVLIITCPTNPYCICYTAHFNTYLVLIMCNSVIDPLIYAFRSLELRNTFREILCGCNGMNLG

One may read the inhibition as the drop in the measured response relative to a control, in per cent. As to `N[C@H](Cc1ccc2ccccc2c1)C(=O)N1C[C@H](Cc2ccccc2)NC[C@H]1Cc1ccccc1` [Example 8, (R)-2-Amino-1-((2R,5S)-2,5-dibenzyl-piperazin-1-yl)-3-naphthalen-2-yl-propan-1-one], the inhibition at 1 µM in experiment [1] is 0%; in experiment [2], 0%; in experiment [3] it was 0%; in experiment [4] it was 10%.

As for `N[C@@H](Cc1ccccc1)C(=O)N1C[C@H](Cc2ccccc2)NC[C@H]1Cc1ccccc1` [Example 9, (S)-2-Amino-1-((2R,5S)-2,5-dibenzyl-piperazin-1-yl)-3-phenyl-propan-1-one], the inhibition at 1 µM in experiment [1], in experiment [2], in experiment [3] and in experiment [4] was 0% throughout.

On to `N[C@H](Cc1ccc(Cl)cc1Cl)C(=O)N1C[C@H](Cc2ccccc2)NC[C@H]1Cc1ccccc1` [Example 10, (R)-2-Amino-1-((2R,5S)-2,5-dibenzyl-piperazin-1-yl)-3-(2,4-dichloro-phenyl)-propan-1-one], for which the inhibition at 1 µM was 0% in experiment [1], 0% in experiment [2], 13% in experiment [3] and 0% in experiment [4].

As to `N[C@H](Cc1ccccc1Cl)C(=O)N1CCN[C@H](Cc2ccc3ccccc3c2)C1` [Example 11, (R)-2-Amino-3-(2-chloro-phenyl)-1-((R)-3-naphthalen-2-ylmethyl-piperazin-1-yl)-propan-1-one], the inhibition at 1 µM is 19% in experiment [1], 4% in experiment [2], 9% in experiment [3] and 0% in experiment [4].

As to `N[C@@H](Cc1c[nH]cn1)C(=O)N[C@H](Cc1ccccc1Cl)C(=O)N1CCN[C@H](Cc2ccc3ccccc3c2)C1` [Example 12, (S)-2-Amino-N—[(R)-1-(2-chloro-benzyl)-2-((R)-3-naphthalen-2-ylmethyl-piperazin-1-yl)-2-oxo-ethyl]-3-(1H-imidazol-4-yl)-propionamide], the inhibition at 1 µM in experiment [1] is 18%; in experiment [2], 52%; in experiment [3], 0%; in experiment [4], 12%.

As for `O=C(N[C@H](Cc1ccccc1Cl)C(=O)N1CCN[C@H](Cc2ccc3ccccc3c2)C1)[C@H]1Cc2ccccc2CN1` [Example 13, (R)-1,2,3,4-Tetrahydro-isoquinoline-3-carboxylic acid [(R)-1-(2-chloro-benzyl)-2-((R)-3-naphthalen-2-ylmethyl-piperazin-1-yl)-2-oxo-ethyl]-amide], the inhibition at 1 µM in experiment [1] came to 17%; in experiment [2], 24%; in experiment [3] it was 19%; in experiment [4] it was 20%.

Consider `N[C@@H](COCc1ccccc1)C(=O)N[C@H](Cc1ccccc1Cl)C(=O)N1CCN[C@H](Cc2ccc3ccccc3c2)C1` [Example 14, (S)-2-Amino-3-benzyloxy-N—[(R)-1-(2-chloro-benzyl)-2-((R)-3-naphthalen-2-ylmethyl-piperazin-1-yl)-2-oxo-ethyl]-propionamide], for which the inhibition at 1 µM in experiment [1] amounted to 33%; in experiment [2], 46%; in experiment [3], 56%; in experiment [4] it was 23%.

With `N[C@H](Cc1ccc2ccccc2c1)C(=O)N1C[C@@H](Cc2ccccc2)NC[C@@H]1Cc1ccccc1` [Example 15, (R)-2-Amino-1-((2S,5R)-2,5-dibenzyl-piperazin-1-yl)-3-naphthalen-2-yl-propan-1-one], the inhibition at 1 µM in experiment [1] amounted to 0%; in experiment [2] it was 0%; in experiment [3], 18%; in experiment [4], 3%.

On to `N[C@H](Cc1ccc(Cl)cc1Cl)C(=O)N1C[C@@H](Cc2ccccc2)NC[C@@H]1Cc1ccccc1` [Example 16, (R)-2-Amino-1-((2S,5R)-2,5-dibenzyl-piperazin-1-yl)-3-(2,4-dichloro-phenyl)-propan-1-one], for which the inhibition at 1 µM in experiment [1] came to 0%; in experiment [2], 0%; in experiment [3] it was 14%; in experiment [4] it was 0%.

Regarding `N[C@H](Cc1ccccc1)C(=O)N1C[C@@H](Cc2ccccc2)NC[C@@H]1Cc1ccccc1` [Example 17, (R)-2-Amino-1-((2S,5R)-2,5-dibenzyl-piperazin-1-yl)-3-phenyl-propan-1-One], the inhibition at 1 µM in experiment [1] was 0%; in experiment [2] it was 0%; in experiment [3] it was 6%; in experiment [4], 3%.

For the compound `N[C@@H](Cc1ccccc1)C(=O)N1C[C@@H](Cc2ccccc2)NC[C@@H]1Cc1ccccc1` [Example 18, (S)-2-Amino-1-((2S,5R)-2,5-dibenzyl-piperazin-1-yl)-3-phenyl-propan-1-one], the inhibition at 1 µM in experiment [1] was determined as 0%; in experiment [2], 0%; in experiment [3] it was 8%; in experiment [4] it was 12%.

Regarding `N[C@H](Cc1ccc(Cl)cc1)C(=O)N1CCN[C@H](Cc2ccc3ccccc3c2)C1` [Example 19, (R)-2-Amino-3-(4-chloro-phenyl)-1-((R)-3-naphthalen-2-ylmethyl-piperazin-1-yl)-propan-1-one], the inhibition at 1 µM in experiment [1] came to 0%; in experiment [2] it was 5%; in experiment [3] it was 21%; in experiment [4], 0%.

In the case of `N[C@@H](Cc1c[nH]cn1)C(=O)N[C@H](Cc1ccc(Cl)cc1)C(=O)N1CCN[C@H](Cc2ccc3ccccc3c2)C1` [Example 20, (S)-2-Amino-N—[(R)-1-(4-chloro-benzyl)-2-((R)-3-naphthalen-2-ylmethyl-piperazin-1-yl)-2-oxo-ethyl]-3-(1H-imidazol-4-yl)-propionamide], the inhibition at 1 µM in experiment [1] is 18%; in experiment [2] it was 71%; in experiment [3] it was 25%; in experiment [4] it was 0%.

With `O=C(N[C@H](Cc1ccc(Cl)cc1)C(=O)N1CCN[C@H](Cc2ccc3ccccc3c2)C1)[C@H]1Cc2ccccc2CN1` [Example 21, (R)-1,2,3,4-Tetrahydro-isoquinoline-3-carboxylic acid [(R)-1-(4-chloro-benzyl)-2-((R)-3-naphthalen-2-ylmethyl-piperazin-1-yl)-2-oxo-ethyl]-amide], the inhibition at 1 µM in experiment [1] worked out at 26%; in experiment [2], 6%; in experiment [3] it was 30%; in experiment [4], 14%.

In the case of `N[C@@H](COCc1ccccc1)C(=O)N[C@H](Cc1ccc(Cl)cc1)C(=O)N1CCN[C@H](Cc2ccc3ccccc3c2)C1` [Example 22, (S)-2-Amino-3-benzyloxy-N—[(R)-1-(4-chloro-benzyl)-2-((R)-3-naphthalen-2-ylmethyl-piperazin-1-yl)-2-oxo-ethyl]-propionamide], the inhibition at 1 µM was determined as 54% in experiment [1], 2% in experiment [2], 36% in experiment [3] and 27% in experiment [4].

Consider `CC(=O)N[C@H](Cc1ccc(Cl)cc1)C(=O)N1CCN[C@H](Cc2ccc3ccccc3c2)C1` [Example 23, N—[(R)-1-(4-Chloro-benzyl)-2-((R)-3-naphthalen-2-ylmethyl-piperazin-1-yl)-2-oxo-ethyl]-acetamide], for which the inhibition at 1 µM in experiment [1] turned out to be 0%; in experiment [2] it was 6%; in experiment [3], 13%; in experiment [4], 4%.

Take `O=C(CCCc1ccccc1)N[C@H](Cc1ccc(Cl)cc1)C(=O)N1CCN[C@H](Cc2ccc3ccccc3c2)C1` [Example 24, N—[(R)-1-(4-Chloro-benzyl)-2-((R)-3-naphthalen-2-ylmethyl-piperazin-1-yl)-2-oxo-ethyl]-4-phenyl-butyramide]: the inhibition at 1 µM is 3% in experiment [1], 5% in experiment [2], 20% in experiment [3] and 13% in experiment [4].

In the case of `O=C(Cc1ccccc1)N[C@H](Cc1ccc(Cl)cc1)C(=O)N1CCN[C@H](Cc2ccc3ccccc3c2)C1` [Example 25, N—[(R)-1-(4-Chloro-benzyl)-2-((R)-3-naphthalen-2-ylmethyl-piperazin-1-yl)-2-oxo-ethyl]-2-phenyl-acetamide], the inhibition at 1 µM amounted to 6% in experiment [1], 5% in experiment [2], 19% in experiment [3] and 18% in experiment [4].
